Some test systems named below: HL-60(TB) leukemia; HOP-62 NSCLC; SNB-19 CNS; UACC-62 melanoma; SF-268 CNS; SK-MEL-5 melanoma; KM12 colon; SK-OV-3 ovarian; OVCAR-4 ovarian; SNB-75 CNS.
Common to all, as to experiment: NCI anticancer screen, dose series, 48 h

Values after ≈ are worked out from the molar mass of the structure shown.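 How tested: cells in 96-well plates exposed to compound for 48 hours at five concentrations. Here, GI50 denotes the concentration required for 50% inhibition of growth. Definition used: TGI = concentration required for complete inhibition of growth.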 Where only a bound is given, the exact number is not on record here.

Regarding `NCCNc1nc(N2CCCC2)c2nc(Cl)c(NCc3ccccc3)nc2n1`, the TGI with HL-60(TB) leukemia was 3.99 µM; in the test on HOP-62 NSCLC, 3.64 µM; with SNB-19 CNS, 3.91 µM; with UACC-62 melanoma, 3.19 µM; in the test with SF-268 CNS, 3.81 µM; in the test with SK-MEL-5 melanoma it was 3.27 µM. In addition, the TGI is 2.93 µM in the test on KM12 colon, 3.79 µM in the test with SK-OV-3 ovarian, 5.3 µM in the test with OVCAR-4 ovarian and 3.49 µM in the test with SNB-75 CNS.
Take `CC1(C)CC(=O)C2=C(C1)NC(SSC1=C(C#N)C(c3ccc(F)cc3)C3=C(CC(C)(C)CC3=O)N1)=C(C#N)C2c1ccc(F)cc1` (stereo not given): the GI50 in the test on HL-60(TB) leukemia was 47.1 µg/mL (≈ 72 µM); in the test with HOP-62 NSCLC, 108 µg/mL (≈ 164 µM); in the test on SNB-19 CNS, 77.1 µg/mL (≈ 118 µM); in the test with UACC-62 melanoma it was 23.7 µg/mL (≈ 36.2 µM); with SF-268 CNS, 29.3 µg/mL (≈ 44.8 µM); in the test with SK-MEL-5 melanoma it was 22.9 µg/mL (≈ 35 µM). The GI50 in the test with KM12 colon was 52.9 µg/mL (≈ 80.7 µM); in the test on SK-OV-3 ovarian it was 15 µg/mL (≈ 22.9 µM); with OVCAR-4 ovarian, 27.7 µg/mL (≈ 42.3 µM); in the test on SNB-75 CNS it was 41.3 µg/mL (≈ 63.1 µM). In addition, the TGI in the test with HL-60(TB) leukemia is over 150 µg/mL; in the test with HOP-62 NSCLC, over 150 µg/mL; in the test on SNB-19 CNS, over 150 µg/mL; with UACC-62 melanoma, 43.9 µg/mL; with SF-268 CNS, 58.4 µg/mL; in the test with SK-MEL-5 melanoma, 44.7 µg/mL. Also, the TGI with KM12 colon was over 150 µg/mL; in the test on SK-OV-3 ovarian, 15 µg/mL; in the test on OVCAR-4 ovarian, 52.7 µg/mL; with SNB-75 CNS it was over 150 µg/mL.
With `N#CC(c1ccccc1)N1CCCN(C(C#N)c2ccccc2)C1c1ccccc1O` (stereo not given), the TGI with HL-60(TB) leukemia, in the test with HOP-62 NSCLC, with SNB-19 CNS, with UACC-62 melanoma, with SF-268 CNS and with SK-MEL-5 melanoma was over 100 µM in each case. In addition, the TGI in the test on KM12 colon, in the test with SK-OV-3 ovarian, in the test on OVCAR-4 ovarian and with SNB-75 CNS was over 100 µM throughout.
Take `Nc1ccc2c(c1)C(=O)N(O)C2=O`: the TGI with HL-60(TB) leukemia, in the test with HOP-62 NSCLC, in the test with SNB-19 CNS, in the test with UACC-62 melanoma, with SF-268 CNS and in the test on KM12 colon was over 100 µM throughout. In addition, the TGI with SK-OV-3 ovarian, in the test on OVCAR-4 ovarian and with SNB-75 CNS was over 100 µM in each case.
`O=C(O)C(CSC(c1ccccc1)(c1ccccc1)c1ccccc1)N=Cc1cccs1` (stereo not given): the TGI with HL-60(TB) leukemia is 26.6 µM; in the test on HOP-62 NSCLC, over 100 µM; in the test with SNB-19 CNS, over 100 µM; in the test with UACC-62 melanoma it was over 78.3 µM; in the test with SF-268 CNS, over 40.2 µM; in the test on SK-MEL-5 melanoma it was over 24.7 µM. The TGI is over 60.7 µM in the test on KM12 colon, over 67.5 µM with SK-OV-3 ovarian, over 100 µM with OVCAR-4 ovarian and over 79.5 µM in the test on SNB-75 CNS.
As to `COC(=O)C1C(C)N1C` (stereo not given), the TGI with HL-60(TB) leukemia, in the test with HOP-62 NSCLC, in the test on SNB-19 CNS, with UACC-62 melanoma, in the test on SK-MEL-5 melanoma and in the test on KM12 colon was over 100 µM in each case. Besides, the TGI in the test on SK-OV-3 ovarian, in the test on OVCAR-4 ovarian and in the test on SNB-75 CNS was over 100 µM in each case.
In the case of `CCC(C)C1NC(=O)C2CCCN2C(=O)C(CC2CO2)OC(=O)CCNC(=O)C(C)N(C)C(=O)C(C(C)C)N(C)C1=O` (stereo not given), the TGI in the test with SNB-19 CNS was over 100 µM; in the test on UACC-62 melanoma it was 2.15 µM; in the test on SF-268 CNS it was over 100 µM; in the test with SK-MEL-5 melanoma, under 0.0276 µM; in the test with KM12 colon, over 100 µM; in the test with SK-OV-3 ovarian, over 100 µM. The compound further had a TGI in the test on OVCAR-4 ovarian of over 100 µM.
Take `C[C@]12CC[C@@H]3c4ccccc4CC[C@H]3[C@@H]1CC[C@@H]2O`: the TGI with HOP-62 NSCLC, with SNB-19 CNS, in the test with UACC-62 melanoma, with SF-268 CNS, in the test with KM12 colon and in the test with SK-OV-3 ovarian was over 100 µM throughout. This compound yielded a TGI in the test with SNB-75 CNS of over 100 µM.
As to `O=S(=O)(O)c1cccc2c(N=Nc3c(O)ccc4ccccc34)cccc12`, the TGI in the test on HOP-62 NSCLC, with SNB-19 CNS, with UACC-62 melanoma, in the test on SF-268 CNS, in the test with SK-MEL-5 melanoma and with KM12 colon was over 100 µM in each case. The TGI in the test with SK-OV-3 ovarian, with OVCAR-4 ovarian and in the test on SNB-75 CNS was over 100 µM each time.
As for `[O-][N+](CCO)(CCO)c1ncnc2nc[nH]c12`, the TGI with HOP-62 NSCLC, in the test on SNB-19 CNS, in the test with UACC-62 melanoma, in the test on SF-268 CNS, in the test on SK-MEL-5 melanoma and with KM12 colon was over 100 µM throughout. Also, the TGI in the test with SK-OV-3 ovarian, with OVCAR-4 ovarian and in the test with SNB-75 CNS was over 100 µM throughout.
Consider `CN1C2CCC1C(C(O)c1ccccc1[N+](=O)[O-])C(=O)C2` (stereo not given), for which the TGI with HL-60(TB) leukemia, in the test with HOP-62 NSCLC, in the test with SNB-19 CNS, in the test with UACC-62 melanoma, in the test on SF-268 CNS and with SK-MEL-5 melanoma was over 100 µM throughout. Further, the TGI in the test with KM12 colon, with SK-OV-3 ovarian and with OVCAR-4 ovarian was over 100 µM in each case.
Regarding `CC(Sc1ccccc1)C(CO)(CO)[N+](=O)[O-]` (stereo not given), the TGI in the test on HL-60(TB) leukemia is 16 µM; in the test with HOP-62 NSCLC it was 35.5 µM; with SNB-19 CNS it was 43.8 µM; with UACC-62 melanoma it was 29.9 µM; in the test with SF-268 CNS, 46.5 µM; in the test with SK-MEL-5 melanoma, 25.8 µM. For the same compound, the TGI is 39.9 µM with SK-OV-3 ovarian, 32.1 µM in the test with OVCAR-4 ovarian and 35.4 µM with SNB-75 CNS.
In the case of `COc1ccc(/C=C(\C#N)c2nc(N)nc(N3N=C(C)CC3(C)C)n2)c(O)c1`, the TGI was 46.8 µM in the test on HL-60(TB) leukemia; 43.6 µM with HOP-62 NSCLC; over 100 µM in the test on SNB-19 CNS; 34.6 µM in the test with UACC-62 melanoma; 38.3 µM with SF-268 CNS; 28.5 µM with SK-MEL-5 melanoma. Moreover, the values for the TGI in the test on KM12 colon, in the test with SK-OV-3 ovarian and in the test with OVCAR-4 ovarian were 29.2 µM, 65.1 µM and 30.4 µM, respectively.
In the case of `CC(=O)N(C)c1ccc2c(ccc[n+]2[O-])c1[N+](=O)[O-]`, the TGI with HL-60(TB) leukemia, with HOP-62 NSCLC, with UACC-62 melanoma, with SF-268 CNS, in the test on SK-MEL-5 melanoma and in the test on KM12 colon was over 100 µM in each case. The TGI with OVCAR-4 ovarian and in the test with SNB-75 CNS was over 100 µM in each case.

Source of the values: PubChem BioAssay (NCI).
